Experimental data published in patent US20220202905A1, “COMPOSITION FOR PREVENTING OR TREATING NEUROTROPHIC KERATITIS WHICH CONTAINS PACAP PEPTIDE OR STABILIZED PACAP PEPTIDE” (SENJU PHARMACEUTICAL CO., LTD., priority 2019, published 2022).
Square brackets hold non-standard residues; d marks the D form. Peptide text beside a SMILES is read from it. Ala(1H-tetrazol-5-yl) = N[C@@H](Cc1nnn[nH]1)C(=O)O

Assay: Peptide stability test, Tris buffer (pH 7.0), 60° C. storage, HPLC remaining rate
Type: physicochemical
Details: Table 7; 100 μM in Tris buffer pH 7.0
Method: Peptides 1, 2 and 6 to 9 synthesized in Example 2 were weighed and dissolved in Tris buffer (pH 7.0) to prepare 1.0 mM peptide solutions. Each solution was filtered with a Chromatdisk (product of Merck Millipore, Millex-GV, 0.22 μm). The filtrate was diluted to 100 μM with Tris buffer (pH 7.0) and dispensed into a tube (Protein LoBind Tube by Eppendorf Co.). The prepared peptide solutions were incubated for 1 week or 2 weeks in a 60° C. thermostatic bath to obtain stored samples. A simultaneously prepared sample among the peptide solutions that was not stored was used as a standard sample (initial sample). The standard sample and the stored samples were stored at −30° C. until sample analysis. Each stored sample was measured under the following HPLC analysis conditions 2, and the remaining rate after correction for water for each peptide among the stored samples was calculated in the same manner as Example 3. Guard column: XSelect CSH C18 by Waters Co., 5 μm, 4.6×20 mm Guard Cartridge Detection wavelength: 220 nm Mobile phase A: 0.1% formic acid aqueous solution Mobile phase B: 0.1% acetonitrile formate solution Measuring time: 20 minutes Measuring sample injection rate: 50 μL Flow rate: 1.0 mL/min Column temperature: 40° C. Sample cooler: 25° C. Mobile phase delivery: The mixing ratio of mobile phase A and mobile phase B was varied as shown in Table 5 for linear concentration gradient control. Peptides 12 to 25, 27 and 28 synthesized in Example 2 were weighed and dissolved in Tris buffer (pH 7.0) to prepare 1.0 mM peptide solutions. Each solution was filtered with a Chromatdisk (product of Merck Millipore, Millex-GV, 0.22 μm). The filtrate was diluted to 100 μM with Tris buffer (pH 7.0) and dispensed into a tube (Protein LoBind Tube by Eppendorf Co.). The prepared peptide solutions were incubated for one week or 2 weeks in a 60° C. thermostatic bath to obtain stored samples. A simultaneously prepared sample among the peptide solutions that was not stored was used as a standard sample (initial sample). The standard sample and the stored samples were stored at −30° C. until sample analysis. The remaining rate after correction for water for each peptide among the stored samples was calculated in the same manner as Example 4, and the results are shown in Table 7. Peptides 29 to 34 synthesized in Example 2 were weighed and dissolved in Tris buffer (pH 7.0) to prepare 1.0 mM peptide solutions. Each solution was filtered with a Chromatdisk (product of Merck Millipore, Millex-GV, 0.22 μm). The filtrate was diluted to 100 μM with Tris buffer (pH 7.0) and dispensed into a tube (Protein LoBind Tube by Eppendorf Co.). The prepared peptide solutions were incubated for 2 weeks in a 60° C. thermostatic bath to obtain stored samples. A simultaneously prepared sample among the peptide solutions that was not stored was used as a standard sample (initial sample). The standard sample and the stored samples were stored at −30° C. until sample analysis. The remaining rate after correction for water for each peptide among the stored samples was calculated in the same manner as Example 4, and the results are shown in Table 7-2. Peptide 26 synthesized in Example 2 was weighed and dissolved in Tris buffer (pH 7.0) to prepare a 1.0 mM peptide solution. The solution was filtered with a Chromatdisk (product of Merck Millipore, Millex-GV, 0.22 μm). The filtrate was diluted to 100 μM with Tris buffer (pH 7.0) and dispensed into a tube (Protein LoBind Tube by Eppendorf Co.). The prepared peptide solution was incubated for one week or 2 weeks in a 60° C. thermostatic bath to obtain stored samples. A simultaneously prepared sample among the peptide solutions that was not stored was used as a standard sample (initial sample). The standard sample and the stored sample were stored at −30° C. until sample analysis. […]

remaining rate after correction for water, 60° C., 1 week preservation [%]	remaining rate after correction for water, 60° C., 2 weeks preservation [%]	Structure (SMILES)
98.1	93.5	CC[C@H](C)[C@H](NC(=O)CNC(=O)[C@H](Cc1nnn[nH]1)NC(=O)[C@H](CO)NC(=O)[C@H](Cc1c[nH]cn1)NC(C)=O)C(=O)N[C@@H](Cc1ccccc1)C(=O)N[C@H](C(=O)N[C@@H](Cc1nnn[nH]1)C(=O)N[C@@H](CO)C(=O)N[C@@H](Cc1ccc(O)cc1)C(=O)N[C@@H](C)C(=O)N[C@@H](CCCNC(=N)N)C(=O)N[C@@H](Cc1ccc(O)cc1)C(=O)N[C@@H](CCCNC(=N)N)C(=O)N[C@@H](CCCCN)C(=O)N[C@@H](CCC(N)=O)C(=O)N[C@@H](CC(C)C)C(=O)N[C@@H](C)C(=O)N[C@H](C(=O)N[C@@H](CCCCN)C(=O)N[C@@H](CCCCN)C(=O)N[C@@H](Cc1ccc(O)cc1)C(=O)N[C@@H](CC(C)C)C(=O)N[C@@H](C)C(=O)N[C@@H](C)C(=O)N[C@H](C(=O)N[C@@H](CC(C)C)C(N)=O)C(C)C)C(C)C)[C@@H](C)O [Peptide 16] (Ac-HS[Ala(1H-tetrazol-5-yl)]GIFT[Ala(1H-tetrazol-5-yl)]SYARYRKQLAVKKYLAAVL-NH2)
97.8	93.4	CC[C@H](C)[C@H](NC(=O)CNC(=O)[C@H](Cc1nnn[nH]1)NC(=O)[C@H](CO)NC(=O)[C@H](Cc1c[nH]cn1)NC(C)=O)C(=O)N[C@@H](Cc1ccccc1)C(=O)N[C@H](C(=O)N[C@@H](Cc1nnn[nH]1)C(=O)N[C@@H](CO)C(=O)N[C@@H](Cc1ccc(O)cc1)C(=O)N[C@@H](CO)C(=O)N[C@@H](CCCNC(=N)N)C(=O)N[C@@H](Cc1ccc(O)cc1)C(=O)N[C@@H](CCCNC(=N)N)C(=O)N[C@@H](CCCCN)C(=O)N[C@@H](C)C(=O)N[C@@H](CC(C)C)C(=O)N[C@@H](C)C(=O)N[C@H](C(=O)N[C@@H](CCCCN)C(=O)N[C@@H](CCCCN)C(=O)N[C@@H](Cc1ccc(O)cc1)C(=O)N[C@@H](CC(C)C)C(=O)N[C@@H](C)C(=O)N[C@@H](C)C(=O)N[C@H](C(=O)N[C@@H](CC(C)C)C(N)=O)C(C)C)C(C)C)[C@@H](C)O [Peptide 17] (Ac-HS[Ala(1H-tetrazol-5-yl)]GIFT[Ala(1H-tetrazol-5-yl)]SYSRYRKALAVKKYLAAVL-NH2)
93.9	91.8	CC[C@H](C)[C@H](NC(=O)CNC(=O)[C@H](Cc1nnn[nH]1)NC(=O)[C@H](CO)NC(=O)[C@H](Cc1c[nH]cn1)NC(C)=O)C(=O)N[C@@H](Cc1ccccc1)C(=O)N[C@H](C(=O)N[C@@H](Cc1nnn[nH]1)C(=O)N[C@@H](CO)C(=O)N[C@@H](Cc1ccc(O)cc1)C(=O)N[C@@H](CO)C(=O)N[C@@H](CCCNC(=N)N)C(=O)N[C@@H](Cc1ccc(O)cc1)C(=O)N[C@@H](CCCNC(=N)N)C(=O)N[C@@H](CCCCN)C(=O)N[C@@H](CCC(N)=O)C(=O)N[C@@H](CC(C)C)C(=O)N[C@@H](C)C(=O)N[C@H](C(=O)N[C@@H](CCCCN)C(=O)N[C@@H](CCCCN)C(=O)N[C@@H](Cc1ccc(O)cc1)C(=O)N[C@@H](CC(C)C)C(=O)N[C@@H](C)C(=O)N[C@@H](C)C(=O)N[C@H](C(=O)N[C@@H](C)C(N)=O)C(C)C)C(C)C)[C@@H](C)O [Peptide 20] (Ac-HS[Ala(1H-tetrazol-5-yl)]GIFT[Ala(1H-tetrazol-5-yl)]SYSRYRKQLAVKKYLAAVA-NH2)
97.8	93.5	CC[C@H](C)[C@H](NC(=O)CNC(=O)[C@H](Cc1nnn[nH]1)NC(=O)[C@H](CO)NC(=O)[C@H](Cc1c[nH]cn1)NC(C)=O)C(=O)N[C@@H](Cc1ccccc1)C(=O)N[C@H](C(=O)N[C@@H](Cc1nnn[nH]1)C(=O)N[C@@H](CO)C(=O)N[C@@H](Cc1ccc(O)cc1)C(=O)N[C@@H](CO)C(=O)N[C@@H](CCCNC(=N)N)C(=O)N[C@@H](Cc1ccc(O)cc1)C(=O)N[C@@H](CCCNC(=N)N)C(=O)N[C@@H](CCCNC(=N)N)C(=O)N[C@@H](CCC(N)=O)C(=O)N[C@@H](CC(C)C)C(=O)N[C@@H](C)C(=O)N[C@H](C(=O)N[C@@H](CCCNC(=N)N)C(=O)N[C@@H](CCCNC(=N)N)C(=O)N[C@@H](Cc1ccc(O)cc1)C(=O)N[C@@H](CC(C)C)C(=O)N[C@@H](C)C(=O)N[C@@H](C)C(=O)N[C@H](C(=O)N[C@@H](CC(C)C)C(N)=O)C(C)C)C(C)C)[C@@H](C)O [Peptide 21] (Ac-HS[Ala(1H-tetrazol-5-yl)]GIFT[Ala(1H-tetrazol-5-yl)]SYSRYRRQLAVRRYLAAVL-NH2)
98.2	–	CC[C@H](C)[C@H](NC(=O)CNC(=O)[C@H](Cc1nnn[nH]1)NC(=O)[C@H](CO)NC(=O)[C@H](Cc1c[nH]cn1)NC(C)=O)C(=O)N[C@@H](Cc1ccccc1)C(=O)N[C@H](C(=O)N[C@@H](Cc1nnn[nH]1)C(=O)N[C@@H](CO)C(=O)N[C@@H](Cc1ccc(O)cc1)C(=O)N[C@@H](CO)C(=O)N[C@@H](CCCNC(=N)N)C(=O)N[C@@H](Cc1ccc(O)cc1)C(=O)N[C@@H](CCCNC(=N)N)C(=O)N[C@@H](CCCNC(=N)N)C(=O)N[C@@H](CCC(N)=O)C(=O)N[C@@H](CC(C)C)C(=O)N[C@@H](C)C(=O)N[C@H](C(=O)N[C@@H](CCCNC(=N)N)C(=O)N[C@@H](CCCNC(=N)N)C(=O)N[C@@H](Cc1ccc(O)cc1)C(=O)N[C@@H](CC(C)C)C(=O)N[C@@H](C)C(=O)N[C@@H](C)C(=O)N[C@H](C(=O)N[C@@H](CC(C)C)C(=O)NCC(=O)N[C@@H](CCCNC(=N)N)C(=O)N[C@@H](CCCNC(=N)N)C(N)=O)C(C)C)C(C)C)[C@@H](C)O [Peptide 22] (Ac-HS[Ala(1H-tetrazol-5-yl)]GIFT[Ala(1H-tetrazol-5-yl)]SYSRYRRQLAVRRYLAAVLGRR-NH2)
98.1	94.3	CC[C@H](C)[C@H](NC(=O)CNC(=O)[C@H](Cc1nnn[nH]1)NC(=O)[C@H](C)NC(=O)[C@H](Cc1c[nH]cn1)NC(C)=O)C(=O)N[C@@H](Cc1ccccc1)C(=O)N[C@H](C(=O)N[C@@H](Cc1nnn[nH]1)C(=O)N[C@@H](C)C(=O)N[C@@H](Cc1ccc(O)cc1)C(=O)N[C@@H](CO)C(=O)N[C@@H](CCCNC(=N)N)C(=O)N[C@@H](Cc1ccc(O)cc1)C(=O)N[C@@H](CCCNC(=N)N)C(=O)N[C@@H](CCCCN)C(=O)N[C@@H](CCC(N)=O)C(=O)N[C@@H](CC(C)C)C(=O)N[C@@H](C)C(=O)N[C@H](C(=O)N[C@@H](CCCCN)C(=O)N[C@@H](CCCCN)C(=O)N[C@@H](Cc1ccc(O)cc1)C(=O)N[C@@H](CC(C)C)C(=O)N[C@@H](C)C(=O)N[C@@H](C)C(=O)N[C@H](C(=O)N[C@@H](CC(C)C)C(N)=O)C(C)C)C(C)C)[C@@H](C)O [Peptide 24] (Ac-HA[Ala(1H-tetrazol-5-yl)]GIFT[Ala(1H-tetrazol-5-yl)]AYSRYRKQLAVKKYLAAVL-NH2)
95.8	91.2	CC[C@H](C)[C@H](NC(=O)CNC(=O)[C@H](Cc1nnn[nH]1)NC(=O)[C@H](C)NC(=O)[C@H](Cc1c[nH]cn1)NC(C)=O)C(=O)N[C@@H](Cc1ccccc1)C(=O)N[C@H](C(=O)N[C@@H](Cc1nnn[nH]1)C(=O)N[C@@H](CO)C(=O)N[C@@H](Cc1ccc(O)cc1)C(=O)N[C@@H](CO)C(=O)N[C@@H](CCCNC(=N)N)C(=O)N[C@@H](Cc1ccc(O)cc1)C(=O)N[C@@H](CCCNC(=N)N)C(=O)N[C@@H](CCCCN)C(=O)N[C@@H](CCC(N)=O)C(=O)N[C@@H](C)C(=O)N[C@@H](C)C(=O)N[C@H](C(=O)N[C@@H](CCCCN)C(=O)N[C@@H](CCCCN)C(=O)N[C@@H](Cc1ccc(O)cc1)C(=O)N[C@@H](CC(C)C)C(=O)N[C@@H](C)C(=O)N[C@@H](C)C(=O)N[C@H](C(=O)N[C@@H](CC(C)C)C(N)=O)C(C)C)C(C)C)[C@@H](C)O [Peptide 25] (Ac-HA[Ala(1H-tetrazol-5-yl)]GIFT[Ala(1H-tetrazol-5-yl)]SYSRYRKQAAVKKYLAAVL-NH2)
